Laboratory results as given in publication PMC10533412, “Phosphoantigens glue butyrophilin 3A1 and 2A1 to activate Vγ9Vδ2 T cells” (Nature, 2023).
“And” between values parts separate entries of the source, which are not always exact repeats. Equal values may be shown once.

Experiments:
[1] = molecular target: T1, preconditioned BTN2A1–BTN3A1 B30.2 complex (Homo sapiens, UniProt O00481+Q7KYR7); experiment: ITC: pAg binding to the preconditioned BTN2A1 B30.2 and BTN3A1 B30.2 complex; conditions: ITC; Supplementary Table 4; read-out: KD (M) for phosphoantigen binding to the pre-conditioned 2A1 B30.2 and 3A1 B30.2
T1 construct: The BTN3A1 B30.2 domain was expressed and purified as described previously; 6xHis; made in house; host or cells: Escherichia coli BL21 (DE3) for BTN2A1 B30.2
Description: ITC binding fits were calculated using MicroCal Analysis software.
For HMBPP binding to the preconditioned BTN2A1 B30.2 and BTN3A1 B30.2 complex, BTN2A1 B30.2 (20 µM) and BTN3A1 B30.2 (10 µM) were incubated in the buffer at a 2:1 ratio and loaded into the sample cell, and the injection syringe was filled with buffer containing 100 µM HMBPP.
For DMAPP/IPP binding to the preconditioned BTN2A1 B30.2 and BTN3A1 B30.2 complex, BTN2A1 B30.2 (200 µM) and BTN3A1 B30.2 (100 µM) were incubated in buffer at a 2:1 ratio and loaded into the sample cell, and the injection syringe was filled with buffer containing 1 mM DMAPP/IPP.
For other pAgs, their concentrations were adjusted to 500 µM, and BTN2A1 B30.2 and BTN3A1 B30.2 were adjusted to 100 µM and 50 µM at a 2:1 ratio.

[2] = test system: MIA PaCa-2 cells; experiment: Cell killing assay: cytotoxicity of Vγ9Vδ2 T cells towards pAg- or zoledronate-treated MIA PaCa-2 cells (luciferase); format: cell-based, human; conditions: Homo sapiens, MIA PaCa-2, Supplementary Table 4; read-out: EC50 (M) for MIA PaCa-2 cell lysis mediated by HMBPP analogs and Vγ9Vδ2 T cells
Description: (§1) MIA PaCa-2 cells were infected with lentivirus bearing luciferase transgene. Luciferase-positive cells were plated at 5.0 × 10^3 cells per well in 384-well plates 1 day before transfection. All plasmids were transfected into BTN2A^−/− MIA PaCa-2 (BTN2A1/BTN2A2 KO) cells using Lipofectamine 2000 reagent. […] Stable-lite luciferase (Vazyme) was added to each well and the luciferase signal was immediately measured by using the PerkinElmer EnVision microplate reader.
(§2) Percentage of lysis was calculated using the following equation: percentage of specific lysis = (maximum luciferase − experimental luciferase)/maximum luciferase × 100.

[3] = test system: BTN2A−/− MIA PaCa-2 (BTN2A1/BTN2A2 KO) cells; experiment: Cell killing assay with BTN2A−/− MIA PaCa-2 (BTN2A1/BTN2A2 KO) cells expressing BTN2A1/BTN2A2 variants; conditions: cells expressing the BTN2A1 variant given as label; for Mean response (Fig. 6h, Dunnett test details): N = 6
Description: as §1, §2

T1 sequence (O00481 322-513 limits assumed): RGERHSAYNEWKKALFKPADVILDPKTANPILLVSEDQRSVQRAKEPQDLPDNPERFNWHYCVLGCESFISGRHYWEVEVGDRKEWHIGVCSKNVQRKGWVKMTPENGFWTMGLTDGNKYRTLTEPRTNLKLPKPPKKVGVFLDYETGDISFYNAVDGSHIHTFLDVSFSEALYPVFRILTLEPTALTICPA
T1 sequence (Q7KYR7 316-527 limits assumed): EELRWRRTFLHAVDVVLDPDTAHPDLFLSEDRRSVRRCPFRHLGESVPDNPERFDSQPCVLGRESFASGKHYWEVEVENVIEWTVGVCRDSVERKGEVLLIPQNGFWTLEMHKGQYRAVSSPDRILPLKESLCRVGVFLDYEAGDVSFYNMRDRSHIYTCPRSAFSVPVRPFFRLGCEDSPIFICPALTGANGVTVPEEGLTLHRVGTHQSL

Row | Kd [1] | Compound | EC50 [2] | further results
1 | 2.06e-07 M | C=CC/C(=C\COP(=O)(O)OP(=O)(O)O)CO [Compound 5, (E)-3-(hydroxymethyl)hexa-2,5-dienyl diphosphate] | 1.3e-08 M | –
2 | 2.81e-05 M | C/C(=C\COP(=O)(O)C(F)P(=O)(O)O)CO (centres unmarked) [Compound 11, (E)-(fluoro(hydroxy((4-hydroxy-3-methylbut-2-en-1-yl)oxy)phosphoryl)methyl)phosphonic acid] | 8.71e-07 M | –
3 | – | 2A1 WT | – | Mean response (Fig. 6h, Dunnett test details) ([3]; Row 1 (-6.4)): 1.143; Mean response (Fig. 6h, Dunnett test details) ([3]; Row 2 (-5.8)): 3.802; Mean response (Fig. 6h, Dunnett test details) ([3]; Row 3 (-5.2)): 14.85; Mean response (Fig. 6h, Dunnett test details) ([3]; Row 4 (-4.6)): 21.48; Mean response (Fig. 6h, Dunnett test details) ([3]; Row 5 (-4)): 24.98; Response, individual replicates (Fig. 6h source data) ([3]; x = -4 (log concentration; stimulant and units not given)): 22.8101 and 22.1668 and 28.5464 and 27.6474 and 25.9163 and 22.7794; Response, individual replicates (Fig. 6h source data) ([3]; x = -4.6 (log concentration; stimulant and units not given)): 21.6162 and 22.5956 and 18.2653 and 23.7306 and 21.555 and 21.0967; Response, individual replicates (Fig. 6h source data) ([3]; x = -5.2 (log concentration; stimulant and units not given)): 14.9991 and 16.3572 and 11.8762 and 12.0557 and 14.1862 and 19.6027; Response, individual replicates (Fig. 6h source data) ([3]; x = -5.8 (log concentration; stimulant and units not given)): 3.9587 and 2.199 and 2.053 and 2.932 and 3.753 and 7.914; Response, individual replicates (Fig. 6h source data) ([3]; x = -6.4 (log concentration; stimulant and units not given)): 1.264 and 0.797 and 0.5929 and 0.7387 and 0.7679 and 2.697
4 | 1.25e-05 M | C/C(=C\COP(=O)(O)C(Cl)(Cl)P(=O)(O)O)CO [Compound 8, (E)-(dichloro(hydroxy((4-hydroxy-3-methylbut-2-en-1yl)oxy)phosphoryl)methyl diphosphate] | 9.28e-07 M | –
5 | 3.26e-07 M | CC/C(=C\COP(=O)(O)OP(=O)(O)O)CO [Compound 4, (E)-4-hydroxy-3-ethyl-but-2-enyl diphosphate] | 4.5e-07 M | –
6 | 4.62e-05 M | C/C(=C\COP(=O)(O)CP(=O)(O)O)CO [Compound 7, (E)-((hydroxy((4-hydroxy-3-methylbut-2-en-1-yl)oxy)phosphoryl)methyl)phosphonic acid] | 1.46e-06 M | –
7 | 1.69e-05 M | C/C(=C\COP(=O)(O)OP(=O)(O)O)C(C)O (centres unmarked) [Compound 6, (E)-4-hydroxy-3-methylpent-2-en-1-yl diphosphate] | 1.8e-06 M | –
8 | 4.97e-05 M | C/C(=C\COP(=O)(O)C(Cl)P(=O)(O)O)CO (centres unmarked) [Compound 9, (E)-(chloro(hydroxy((4-hydroxy-3-methylbut-2-en-1-yl)oxy)phosphoryl)methyl)phosphonic acid] | 3.5e-05 M | –
9 | 1.15e-05 M | C/C(=C\COP(=O)(O)C(F)(F)P(=O)(O)O)CO [Compound 10, (E)-(difluoro(hydroxy((4-hydroxy-3-methylbut-2-en-1-yl)oxy)phosphory)methyl)phosphonic acid] | 5.33e-06 M | –
